Patent US7652007B2, “Nitrogen-substituted hexahydropyrazino[1,2-A]pyrimidine-4,7-dione derivatives, processes for their preparation and their use as medicaments” (Sanofi-Aventis Deutschland GmbH, priority 2003, dated 2010)

Test system: female NMRI mice
Test: Anorectic effect: cumulative condensed milk consumption of treated compared with control animals
Format: in vivo
Settings: oral dose 50 mg/kg by gavage, female NMRI mice after withdrawal of food for 24 hours; for Reduction in the cumulative milk consumption as % of the control: compared with vehicle-treated control animals; for cumulative milk consumption of the treated animals: condensed milk offered 30 minutes after administration, consumption determined for 7 hours
Experimental: The anorectic effect was tested on female NMRI mice. After withdrawal of food for 24 hours, the test product was administered by gavage. The animals were housed singly with free access to drinking water and were offered condensed milk 30 minutes after administration of the product. The condensed milk consumption was determined every half hour for 7 hours, and the general wellbeing of the animals was observed. The measured milk consumption was compared with the vehicle-treated control animals.

| SMILES | Reduction in the cumulative milk consumption as % of the control | cumulative milk consumption of the treated animals |
| --- | --- | --- |
| CC(C)N1CC2N(C(=O)C(N(C)C)CN2S(=O)(=O)c2ccc(Cl)cc2Cl)C(Cc2ccc(Cl)cc2)C1=O (stereo not shown) [Example 5, 6-(4-Chlorobenzyl)-1-(2,4-dichlorobenzenesulfonyl)-3-dimethylamino-8-isopropylhexahydropyrazino[1,2-a]pyrimidine-4,7-dione] | 31 % of the control | 5/2.4 ml |
| CC(C)N1CC2N(C(=O)C(NS(C)(=O)=O)CN2S(=O)(=O)c2ccc(Cl)cc2Cl)C(Cc2ccc(Cl)cc2)C1=O (stereo not shown) [Example 9, N-[6-(4-Chlorobenzyl)-1-(2,4-dichlorobenzenesulfonyl)-8-isopropyl-4,7-dioxooctahydropyrazino[1,2-a]pyrimidin-3-yl]methanesulfonamide] | 47 % of the control | 5/2.06 ml |
